Values quoted from earlier work, collected in article PMC7248880, “Preclinical Incorporation Dosimetry of [^18F]FACH—A Novel ^18F-Labeled MCT1/MCT4 Lactate Transporter Inhibitor for Imaging Cancer Metabolism with PET” (Molecules, 2020).

How the values were obtained:
[1] = test system: MCT1; parameters: method as in PMID 31017677, PMID 31017677; details: cited from earlier work
[2] = test system: MCT4; parameters: method as in PMID 31017677, PMID 31017677; details: cited from earlier work
[3] = piglet biokinetic data; cited from earlier work

| Structure (SMILES) | IC50 [1] [nM] | IC50 [2] [nM] | ED, Preclinical [3] [μSv/MBq] |
| --- | --- | --- | --- |
| CCCN(CCCF)c1ccc(/C=C(\C#N)C(=O)O)c(OC)c1 [FACH] | 11 | 6.5 |  |
| O=S1(=O)c2ccc([18F])cc2-c2ccc(N3CCN4CCC3CC4)cc21 [[^18F]DBT10] |  |  | 13.7 |
| FCC[C@@H]1OC2(CCN(Cc3ccccc3)CC2)c2ccccc21 [(S)-(−)-[^18F]fluspidine] |  |  | 12.9 |
| [18F]c1ccc(C2CC3CCCC2N3)cn1 (single isomer, unassigned; (+)) [(+)-[^18F]flubatine] |  |  | 14.3 |
| [18F]CC[C@H]1OC2(CCN(Cc3ccccc3)CC2)c2ccccc21 [(R)-(+)-[^18F]fluspidine] |  |  | 14.0 |
| [18F]c1ccc([C@@H]2C[C@H]3CCC[C@@H]2N3)cn1 [(−)-[^18F]flubatine] |  |  | 14.7 |
